Experimental data: the supplement of paper PMC10307832

Experiments:
Test in all cases: relative viability (nuclei count vs DMSO), 5 days (fraction); higher = more cells survive
BGJ398 + Vorinostat = compound: CCN1CCN(c2ccc(Nc3cc(N(C)C(=O)Nc4c(Cl)c(OC)cc(OC)c4Cl)ncn3)cc2)CC1 [BGJ398] + O=C(CCCCCCC(=O)Nc1ccccc1)NO [Vorinostat] (partner 1 µM)
Summary of the method: (§1)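 Lung cancer cell lines in 1536-well plates were dosed by pin tool the day after seeding, either with one drug alone or with a fixed anchor-drug dose plus five library-drug doses (not always all listed) in √10 steps. After 5 days, cells were fixed and their nuclei stained in one step (final 0.05% Triton X-100, 1% formaldehyde, 1 ug/ml Hoechst), then counted on 4× images. Relative viability is the nuclei count in treated wells divided by that in vehicle wells. Values are medians of duplicate plates.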

[1] = compound: C1=CC2=NC=CN=C2C=C1/C=C/3\C(=O)NC(=O)S3 + CC(=O)Nc1cccc(-n2c(=O)n(C3CC3)c(=O)c3c(Nc4ccc(I)cc4F)n(C)c(=O)c(C)c32)c1 [Trametinib] (partner 0.02 µM)
Summary of the method: as §1

[2] = compound: C1=CC2=NC=CN=C2C=C1/C=C/3\C(=O)NC(=O)S3 + N=C(N)NC(=N)NCCc1ccccc1 [Phenformin] (partner 250 µM)
Summary of the method: as §1

[3] = compound: C1=CC2=NC=CN=C2C=C1/C=C/3\C(=O)NC(=O)S3 + Cc1nc(NC(=O)N2CCC[C@H]2C(N)=O)sc1-c1ccnc(C(C)(C)C(F)(F)F)c1 [Alpelisib] (partner 2 µM)
Summary of the method: as §1

Cell Line	relative viability (BGJ398 + Vorinostat; first compound 0.01 µM)	relative viability (BGJ398 + Vorinostat; first compound 0.03162 µM)	relative viability (BGJ398 + Vorinostat; first compound 0.1 µM)	relative viability (BGJ398 + Vorinostat; first compound 0.3162 µM)	relative viability (BGJ398 + Vorinostat; first compound 1 µM)	relative viability ([1]; first compound 0.02 µM)	relative viability ([1]; first compound 0.06325 µM)	relative viability ([1]; first compound 0.2 µM)	relative viability ([1]; first compound 0.6325 µM)	relative viability ([1]; first compound 2 µM)	relative viability ([2]; first compound 0.02 µM)	relative viability ([2]; first compound 0.06325 µM)	relative viability ([2]; first compound 0.2 µM)	relative viability ([2]; first compound 0.6325 µM)	relative viability ([2]; first compound 2 µM)	relative viability ([3]; first compound 0.02 µM)	relative viability ([3]; first compound 0.06325 µM)	relative viability ([3]; first compound 0.2 µM)	relative viability ([3]; first compound 0.6325 µM)	relative viability ([3]; first compound 2 µM)
NCI-H23	0.611	0.668	0.722	0.53	0.557	0.346	0.489	0.361	0.394	0.223	0.79	0.716	0.825	0.781	0.729	0.67	0.803	0.589	0.692	0.567
NCI-H322M	1.04	0.853	0.942	0.892	0.876	0.535	0.507	0.469	0.503	0.383	0.744	0.813	0.796	0.776	0.669	0.835	0.713	0.74	0.852	0.67
NCI-H358	0.614	0.769	0.704	0.635	0.824	0.145	0.122	0.139	0.126	0.11	0.41	0.382	0.356	0.283	0.149	0.953	0.955	0.87	0.791	0.547
NCI-H441	–	0.73	0.822	0.916	0.81	0.409	0.52	0.451	0.343	0.305	0.856	1.06	0.84	0.755	0.327	0.714	0.844	–	0.876	0.636
NCI-H460	0.737	0.706	1.18	0.809	0.67	0.0917	0.0921	0.223	0.11	0.0876	0.477	0.619	0.536	0.516	0.468	0.508	0.514	0.464	0.429	0.379
NCI-H520	0.637	0.563	0.503	0.269	0.332	0.648	0.65	0.812	0.664	0.62	0.635	0.728	0.601	0.464	0.644	0.866	0.948	0.822	0.877	1.01
NCI-H596	0.612	0.619	0.674	0.508	0.528	0.764	0.771	0.794	0.887	0.722	0.744	0.66	0.742	0.675	0.714	0.486	0.451	0.469	0.537	0.502
NCI-H647	0.471	0.549	0.482	0.51	0.626	0.459	0.52	0.545	0.444	0.389	0.587	0.56	0.591	0.384	0.437	0.865	1.89	1.28	1.06	1.14
NCI-H650	0.414	0.427	0.543	0.464	0.411	0.971	0.927	1.3	0.994	0.69	0.453	0.487	0.527	0.448	0.348	1.08	1.04	1.06	1.1	1.02
NCI-H661	0.774	0.796	0.806	0.731	0.801	0.709	0.557	0.606	0.526	0.618	0.239	0.393	0.289	0.298	0.249	0.651	0.614	0.952	0.732	0.469
NCI-H727	1.06	1.26	1.21	1.22	0.858	0.386	0.369	0.407	0.397	0.29	0.552	0.504	0.686	0.454	0.283	0.647	0.571	0.556	0.653	0.346
NCI-H838	0.664	0.697	0.695	0.633	0.629	0.537	0.47	0.555	0.454	0.366	0.664	0.737	0.596	0.461	0.36	0.989	1.16	1	1.04	0.913
NCI-H1355	0.576	0.626	0.695	0.607	0.49	0.385	0.432	0.462	0.413	0.382	0.435	0.374	0.489	0.431	0.392	0.67	0.776	0.864	0.773	0.751
NCI-H1395	0.754	0.683	0.534	0.469	0.495	1.01	0.974	1.06	0.978	1.02	0.449	0.449	0.47	0.416	0.483	0.934	1.14	1.32	0.922	1.39
NCI-H1437	0.954	0.887	0.794	0.784	0.821	0.475	0.448	0.534	0.45	0.329	0.258	0.286	0.369	0.274	0.233	0.964	1.04	1.03	0.936	0.844
NCI-H1651	0.473	0.544	0.554	0.579	0.405	0.821	0.642	0.86	0.849	0.725	0.314	0.321	0.325	0.298	0.285	0.888	1.03	0.986	0.937	0.996
